Measured values: patent publication US4696928A, “Substituted dihydroimidazo[1,2-a]quinoxalines” (G. D. Searle & Co., priority 1985, dated 1987)
Values after ≈ are worked out from the molar mass of the structure shown. Where two headings read alike, the source gives them in different places.

How the values were obtained:
[1] = tested on: B. fragilis NCTC 10581; test: MIC/MBC broth microdilution, strain A; assay type: cell-based; details: Bacteroides fragilis, NCTC10581, 48 h; for MBC: 99.9% reduction in viable count after 48 h; for MIC: 37° C., anaerobic
[2] = tested on: B. Fragilis ATCC 23745; details: Bacteroides fragilis, ATCC23745, in Mus musculus, po, 48 h, read-out: Dose giving 1 log reduction, p.o., after infection and twice daily for 2 days; 1 log (90%) reduction of CFU/ml liver homogenate vs untreated; compound of Example
[3] = tested on: B. fragilis NCTC 9344; test: MIC/MBC broth microdilution, strain C; assay type: cell-based, Bacteroides fragilis; details: Bacteroides fragilis, NCTC9344, 48 h; for MBC: 99.9% reduction in viable count after 48 h, read-out: MBC; for MIC: 37° C., anaerobic
[4] = tested on: B. fragilis MZ-R ATCC 11295; test: MIC/MBC broth microdilution, strain D; assay type: cell-based; details: Bacteroides fragilis, ATCC11295, 48 h; for MBC: 99.9% reduction in viable count after 48 h
[5] = tested on: B. fragilis NCTC 9343; test: MIC/MBC broth microdilution, strain B; assay type: cell-based; details: Bacteroides fragilis, NCTC9343, 48 h; for MBC: 99.9% reduction in viable count after 48 h; for MIC: 37° C., anaerobic
[6] = tested on: Clostridium perfringens NCTC 523; test: microbe, parasite or virus in culture; assay type: cell-based; details: NCTC523
[7] = tested on: Campylobacter fetus ss.jejuni ATCC 29428; test: MIC vs. panel of anaerobes; assay type: cell-based; details: ATCC29428
[8] = tested on: Clostridium difficile NCIB 10666; test: MIC vs. panel of anaerobes; assay type: cell-based; details: Clostridioides difficile, NCIB10666
[9] = tested on: Propionebacterium acnes NCTC 7337; test: MIC vs. panel of anaerobes; assay type: cell-based
[10] = tested on: Fusobacterium necrophorum ATCC 11295; test: MIC vs. panel of anaerobes; assay type: cell-based; details: ATCC11295; Fusobacterium necrophorum ATCC 11295; read-out: MIC
[11] = tested on: B. fragilis WS-1; test: MIC/MBC broth microdilution, strain E; assay type: cell-based, Bacteroides fragilis; details: Bacteroides fragilis, WS1, 48 h; for MIC: 37° C., anaerobic; for MBC: 99.9% reduction in viable count after 48 h
[12] = tested on: Bacteroides melanogenicus NCTC 9336; test: MIC vs. panel of anaerobes; assay type: cell-based; details: NCTC9336; Bacteroides melanogenicus NCTC 9336; read-out: MIC
[13] = tested on: Clostridium perfringens NCTC 8237; test: microbe, parasite or virus in culture; assay type: cell-based; details: NCTC8237
[14] = tested on: Peptostreptococcus anaerobicus; test: MIC vs. panel of anaerobes; assay type: cell-based; details: Peptostreptococcus anaerobicus; read-out: MIC
[15] = tested on: Propionebecterium acnes NCTC 737; test: MIC vs. panel of anaerobes; assay type: cell-based
[16] = tested on: Clostridium difficile Cytotoxic 1; test: MIC vs. panel of anaerobes; assay type: cell-based; details: Clostridioides difficile
[17] = Clostridium difficile NCIB 10666, read-out: MIC

CN1CCN(c2ccc3c(n2)N2CCN=C2C(c2ccccc2)=[N+]3[O-])CC1 [Example 9, 1,2-Dihydro-8-(4-methylpiperazinyl)-4-phenylimidazo[1,2-a]pyrido[3,2-e]pyrazine 5-oxide]
MBC [1]: 0.8 µg/mL (≈ 2.21 µM) | MIC ([1]; 48 h): 0.8 µg/mL (≈ 2.21 µM) | ED (1 log reduction) [2]: 4.48 mg/kg | MBC [3]: 0.8 µg/mL (≈ 2.21 µM) | MIC ([3]; 48 h): 0.8 µg/mL (≈ 2.21 µM) | MIC [4]: 0.8 µg/mL (≈ 2.21 µM) | MBC ([4]; strain D (MZ-R)): 0.8 µg/mL (≈ 2.21 µM) | MBC [5]: 0.8 µg/mL (≈ 2.21 µM) | MIC ([5]; 48 h): 0.8 µg/mL (≈ 2.21 µM)

[O-][N+]1=C(c2ccccc2)C2=NCCN2c2cc(N3CCN(c4ccccc4)CC3)ccc21 [Example 8, 1,2-Dihydro-4-phenyl-8-(4-phenylpiperazinyl)imidazo[1,2-a]quinoxaline 5-oxide]
MIC ([1]; read-out: MIC): 1.5 µg/mL (≈ 3.54 µM) | MIC [6]: 1.5 µg/mL (≈ 3.54 µM) | MIC [7]: > 100 µg/mL | MIC [8, 17]: < 0.8 µg/mL | MIC [9]: > 100 µg/mL | MIC [10]: 3.1 µg/mL (≈ 7.32 µM) | MIC ([11]; 48 h): 3.1 µg/mL (≈ 7.32 µM) | MIC [12]: > 100 µg/mL | MIC ([3]; 48 h): < 0.8 µg/mL | MIC [13]: 3.1 µg/mL (≈ 7.32 µM) | MIC [14]: > 100 µg/mL | MIC [15]: > 100 µg/mL | MIC [4]: < 0.8 µg/mL | MIC [16]: < 0.8 µg/mL | MIC ([5]; read-out: MIC): 1.5 µg/mL (≈ 3.54 µM)

CC(=O)N1CCN(c2ccc3c(c2)N2CCN=C2C(c2ccccc2)=[N+]3[O-])CC1 [Example 7, 8-(4-Acetylpiperazinyl)-1,2-dihydro-4-phenylimidazo[1,2-a]quinoxaline 5-oxide]
MIC ([1]; read-out: MIC): 6.2 µg/mL (≈ 15.9 µM) | MBC [1]: 6.2 µg/mL (≈ 15.9 µM) | MIC [6]: 1.5 µg/mL (≈ 3.85 µM) | MIC [7]: 12.5 µg/mL (≈ 32.1 µM) | MIC [8, 17]: < 0.8 µg/mL | MIC [9]: 12.5 µg/mL (≈ 32.1 µM) | MIC [10]: 3.1 µg/mL (≈ 7.96 µM) | MIC ([11]; read-out: MIC): 6.2 µg/mL (≈ 15.9 µM) | MBC [11]: 6.2 µg/mL (≈ 15.9 µM) | MIC [12]: 6.2 µg/mL (≈ 15.9 µM) | ED (1 log reduction) [2]: 11.3 mg/kg | MIC ([3]; read-out: MIC): 6.2 µg/mL (≈ 15.9 µM) | MBC [3]: 6.2 µg/mL (≈ 15.9 µM) | MIC [13]: 3.1 µg/mL (≈ 7.96 µM) | MIC [14]: 12.5 µg/mL (≈ 32.1 µM) | MIC [15]: 25 µg/mL (≈ 64.2 µM) | MBC ([4]; strain D (MZ-R)): 1.5 µg/mL (≈ 3.85 µM) | MIC ([4]; strain D (MZ-R), 48 h, 37° C., anaerobic, read-out: MIC): 1.5 µg/mL (≈ 3.85 µM) | MIC [16]: < 0.8 µg/mL | MBC [5]: 3.1 µg/mL (≈ 7.96 µM) | MIC ([5]; 48 h): 3.1 µg/mL (≈ 7.96 µM)

[O-][N+]1=C(c2ccccc2)C2=NCCN2c2cc(F)c(F)cc21 [Example 2, 1,2-Dihydro-7,8-difluoro-4-phenylimidazo[1,2-a]quinoxaline 5-oxide]
MIC ([1]; read-out: MIC): 0.6 µg/mL (≈ 2 µM) | MBC [1]: 0.6 µg/mL (≈ 2 µM) | MIC [6]: 6.2 µg/mL (≈ 20.7 µM) | MIC [7]: 12.5 µg/mL (≈ 41.8 µM) | MIC [8]: < 0.8 µg/mL | MIC [9]: 25 µg/mL (≈ 83.5 µM) | MIC [10]: 3.1 µg/mL (≈ 10.4 µM) | MIC ([11]; read-out: MIC): 0.6 µg/mL (≈ 2 µM) | MBC [11]: 0.6 µg/mL (≈ 2 µM) | MIC [12]: 6.2 µg/mL (≈ 20.7 µM) | ED (1 log reduction) [2]: < 40 mg/kg | MIC ([3]; read-out: MIC): 0.6 µg/mL (≈ 2 µM) | MBC [3]: 0.6 µg/mL (≈ 2 µM) | MIC [13]: 6.2 µg/mL (≈ 20.7 µM) | MIC [14]: 12.5 µg/mL (≈ 41.8 µM) | MIC [15]: 25 µg/mL (≈ 83.5 µM) | MIC [4]: 0.08 µg/mL (≈ 0.267 µM) | MBC ([4]; strain D (MZ-R)): 0.15 µg/mL (≈ 0.501 µM) | MIC [16]: 6.2 µg/mL (≈ 20.7 µM) | MIC ([5]; read-out: MIC): 0.15 µg/mL (≈ 0.501 µM) | MBC [5]: 0.15 µg/mL (≈ 0.501 µM)

[O-][N+]1=C(c2ccccc2)C2=NCCN2c2cc(N3CCN(c4ccccc4)CC3)c(F)cc21 [Example 5, 1,2-Dihydro-7-fluoro-4-phenyl-8-(4-phenylpiperazinyl)imidazo[1,2-a]quinoxaline 5-oxide]
MIC ([1]; 48 h): 3.1 µg/mL (≈ 7.02 µM) | MIC [6]: 3.1 µg/mL (≈ 7.02 µM) | MIC [7]: > 100 µg/mL | MIC [8, 17]: < 0.8 µg/mL | MIC [9]: > 100 µg/mL | MIC [10]: 6.2 µg/mL (≈ 14 µM) | MIC ([11]; read-out: MIC): 1.5 µg/mL (≈ 3.4 µM) | MIC [12]: > 100 µg/mL | ED (1 log reduction) [2]: 11.7 mg/kg | MIC ([3]; read-out: MIC): 6.2 µg/mL (≈ 14 µM) | MIC [13]: 6.2 µg/mL (≈ 14 µM) | MIC [14]: > 100 µg/mL | MIC [15]: > 100 µg/mL | MIC [4]: 0.8 µg/mL (≈ 1.81 µM) | MIC [16]: < 0.8 µg/mL | MIC ([5]; read-out: MIC): 1.5 µg/mL (≈ 3.4 µM)
